Measurements taken from the CheMixHub viscosity set.

Experiment: xn = mol fraction of the nth substance listed

CC(C)CO + CS(C)=O
viscosity [mPa·s], 101.3 kPa
Details | x2 = 0.0944 | x2 = 0.1917 | x2 = 0.289 | x2 = 0.3884 | x2 = 0.4863 | x2 = 0.5874 | x2 = 0.6887 | x2 = 0.7913 | x2 = 0.8951
298.15 K | 2.785 | 2.366 | 2.056 | 1.934 | 1.879 | 1.853 | 1.858 | 1.891 | 1.918
303.15 K | 2.424 | 2.071 | 1.847 | 1.754 | 1.703 | – | 1.686 | 1.693 | 1.733

O=C([O-])CC(O)(CC(=O)[O-])C(=O)[O-].[NH3+]CCO.[NH3+]CCO.[NH3+]CCO + O
viscosity [mPa·s], 101 kPa
Details | x1 = 0.0053 | x1 = 0.012 | x1 = 0.02 | x1 = 0.031 | x1 = 0.046 | x1 = 0.067 | x1 = 0.16
293.15 K | 1.211 | 1.575 | 2.21 | 3.385 | 6.303 | 12.36 | 106.7
303.15 K | 0.9345 | 1.18 | 1.608 | 2.382 | 4.312 | 8.015 | 66.19
313.15 K | 0.7529 | 0.9296 | 1.227 | 1.786 | 3.032 | 5.371 | 39.23
323.15 K | 0.6242 | 0.7501 | 0.9638 | 1.351 | 2.228 | 3.77 | 21.96

CCCCCOC(C)=O + C=Cc1ccccc1
Details | viscosity [mPa·s]
298.15 K, 101 kPa, x2 = 0.103 | 0.802

C=CC(=O)OCCCC + CCCCCCCCCCO
viscosity [mPa·s], 101.3 kPa
Details | x1 = 0.0646 | x1 = 0.1907 | x1 = 0.2493 | x1 = 0.3612 | x1 = 0.4732 | x1 = 0.665 | x1 = 0.756 | x1 = 0.8402 | x1 = 0.9227 | x1 = 0.9615
298.15 K | 9.073 | 5.873 | 4.998 | 3.536 | 2.535 | 1.653 | 1.303 | 1.07 | 0.905 | 0.843
308.15 K | 6.488 | 4.404 | 3.679 | 2.762 | 2.073 | 1.301 | 1.115 | 0.897 | 0.781 | 0.723

O=C(O)CO + O=C(O)[C@@H]1CCCN1
323 K, 100 kPa
Details | viscosity [mPa·s]
x2 = 0.25 | 480
x2 = 0.338 | 1340
x2 = 0.504 | 8080

CC(C)(C)c1ccccc1 + CC(C)c1ccccc1
303.15 K, 101.3 kPa
Details | viscosity [mPa·s]
x2 = 0.039 | 0.9864
x2 = 0.1371 | 0.9507
x2 = 0.2661 | 0.9067
x2 = 0.4247 | 0.8551
x2 = 0.4906 | 0.8347
x2 = 0.6105 | 0.7984
x2 = 0.7457 | 0.7572
x2 = 0.8708 | 0.7224
x2 = 0.9592 | 0.6981

C=CC(=O)OC + CCCCCCCCCCCCC
viscosity [mPa·s], 100 kPa
Details | x1 = 0.1018 | x1 = 0.1995 | x1 = 0.3067 | x1 = 0.4044 | x1 = 0.5002 | x1 = 0.6038 | x1 = 0.7058 | x1 = 0.8043 | x1 = 0.9012
303.15 K | 1.375 | 1.235 | 1.091 | 0.974 | 0.868 | 0.765 | 0.673 | 0.593 | 0.513
308.15 K | 1.178 | 1.058 | 0.936 | 0.838 | 0.752 | 0.669 | 0.598 | 0.538 | 0.477
313.15 K | 1.056 | 0.953 | 0.845 | 0.762 | 0.689 | 0.618 | 0.554 | 0.498 | 0.446

C[NH+]1CCCC1=O.O=S(=O)([O-])c1ccccc1 + O
viscosity [mPa·s]
Details | 293.15 K | 298.15 K | 303.15 K | 308.15 K
100 kPa, x1 = 0.001798 | 1.074 | 0.9472 | 0.8439 | 0.7688
100 kPa, x1 = 0.003606 | 1.137 | – | 0.8882 | 0.8029
100 kPa, x1 = 0.005372 | 1.198 | 1.053 | 0.9316 | –
100 kPa, x1 = 0.008042 | 1.285 | – | 0.998 | 0.8943
100 kPa, x1 = 0.01069 | 1.372 | 1.206 | – | 0.9518
100 kPa, x1 = 0.01421 | 1.491 | – | – | –
100 kPa, x1 = 0.02115 | 1.749 | – | – | –
100 kPa, x1 = 0.02631 | 1.971 | 1.746 | 1.541 | 1.369
100 kPa, x1 = 0.03141 | 2.217 | 1.963 | 1.737 | 1.527
101 kPa, x1 = 0.005347 | – | 1.055 | – | –
101 kPa, x1 = 0.01545 | – | – | 1.185 | –

C1CCC2=[NH+]CCCN2CC1.c1nc[n-]n1 + CCO
303.15 K, 100 kPa
Details | viscosity [mPa·s]
x1 = 0.1001 | 4.38
x1 = 0.2 | 9.22
x1 = 0.2999 | 22.01
x1 = 0.4003 | 47.32
x1 = 0.4989 | 90.79
x1 = 0.6002 | 174.5
x1 = 0.7008 | 325.1
x1 = 0.7993 | 472.2
x1 = 0.9002 | 830.6

C=CC(=O)OCCCC + CCCCO
101.33 kPa
Details | viscosity [mPa·s]
293.15 K, x1 = 0.0999 | 2.173
293.15 K, x1 = 0.2001 | 1.725
293.15 K, x1 = 0.2999 | 1.448
293.15 K, x1 = 0.3998 | 1.245
293.15 K, x1 = 0.5002 | 1.117
293.15 K, x1 = 0.6002 | 1.025
293.15 K, x1 = 0.7002 | 0.9619
293.15 K, x1 = 0.8 | 0.9168
293.15 K, x1 = 0.9 | 0.8882
303.15 K, x1 = 0.0999 | 1.718
303.15 K, x1 = 0.1998 | 1.385
303.15 K, x1 = 0.3006 | 1.185
303.15 K, x1 = 0.3999 | 1.035
303.15 K, x1 = 0.4992 | 0.9378
303.15 K, x1 = 0.5983 | 0.8682
303.15 K, x1 = 0.6991 | 0.8213
303.15 K, x1 = 0.8002 | 0.784
303.15 K, x1 = 0.9003 | 0.7678
313.15 K, x1 = 0.1004 | 1.291
313.15 K, x1 = 0.2001 | 1.018
313.15 K, x1 = 0.3002 | 0.8796
313.15 K, x1 = 0.3999 | 0.7948
313.15 K, x1 = 0.4994 | 0.7351
313.15 K, x1 = 0.5998 | 0.7091
313.15 K, x1 = 0.6999 | 0.6745
313.15 K, x1 = 0.7578 | 0.6676
313.15 K, x1 = 0.8999 | 0.6659

CCOC(=O)CC + Clc1ccccc1
viscosity [mPa·s], 101.3 kPa
Details | 308.15 K | 318.15 K
x1 = 0.0485 | 0.647 | 0.598
x1 = 0.102 | 0.636 | 0.588
x1 = 0.1976 | 0.616 | 0.57
x1 = 0.307 | 0.594 | 0.55
x1 = 0.3981 | 0.576 | 0.534
x1 = 0.4981 | 0.557 | 0.517
x1 = 0.6116 | 0.535 | 0.498
x1 = 0.7034 | 0.519 | 0.483
x1 = 0.7992 | 0.501 | 0.467
x1 = 0.9 | 0.484 | 0.451
x1 = 0.9478 | 0.476 | 0.444

CCCCCOC(C)=O + ClC(Cl)C(Cl)Cl
303.15 K, 101.3 kPa
Details | viscosity [mPa·s]
x1 = 0.1051 | 1.473
x1 = 0.2031 | 1.446
x1 = 0.3044 | 1.401
x1 = 0.4008 | 1.34
x1 = 0.5038 | 1.256
x1 = 0.598 | 1.165
x1 = 0.7002 | 1.061
x1 = 0.7935 | 0.9582
x1 = 0.8927 | 0.8565

CC1CCCO1 (stereo unspecified) + Clc1ccccc1
298.15 K, 101 kPa
Details | viscosity [mPa·s]
x2 = 0.0188 | 0.47
x2 = 0.0509 | 0.482
x2 = 0.103 | 0.501
x2 = 0.157 | 0.52
x2 = 0.2126 | 0.54
x2 = 0.2712 | 0.56
x2 = 0.3298 | 0.579
x2 = 0.3913 | 0.598
x2 = 0.4548 | 0.617
x2 = 0.5206 | 0.635
x2 = 0.5892 | 0.654
x2 = 0.6601 | 0.671
x2 = 0.7334 | 0.689
x2 = 0.8094 | 0.705
x2 = 0.889 | 0.722
x2 = 0.9713 | 0.737
